From patent US20110034472A1, “Novel Compounds for Treatment of Cancer and Disorders Associated With Angiogenesis Function” (UNIVERSITY OF SOUTHERN CALIFORNIA, priority 2004, published 2011)
Entries after “also recorded” stand apart in the source; their conditions may differ.

Columns and labels:
HEY cells = experiment: Cell cycle analysis (propidium iodide), SC21, HEY; type: cell-based, human; details: 72 hours
Description: (§1) FIG. 17 depicts flow cytometric analysis of the cell cycle profiles of DU145, PC3, MDA-MB-435, and HEY cells treated with SC21. […] SC21 induced a G0/G1 phase arrest in DU145 and MDA-MB-435 cells and S phase arrest in PC3 and HEY cells.
(§2) Cell cycle perturbations induced by SC21 and camptothecin (CPT) were analyzed by propidium iodide DNA staining. Briefly, exponentially growing PC3 and DU145 cells were treated with different doses of the drug for 24, 48, and 72 hours. At the end of each treatment time, cells were collected and washed with PBS after a gentle centrifugation at 200×g for 5 minutes. Cells were thoroughly resuspended in 0.5 mL of PBS and fixed in 70% ethanol for at least 2 hours at 4° C. Ethanol-suspended cells were then centrifuged at 200×g for 5 minutes and washed twice in PBS to remove residual ethanol. For cell cycle analysis, the pellets were suspended in 1 mL of PBS containing 0.02 mg/mL of propidiumiodide, 0.5 mg/mL of DNase-free RNase A and 0.1% of Triton X-100 and incubated at 37° C. for 30 minutes. Cell cycle profiles were obtained using a FACScan flowcytometer (Becton Dickinson, San Jose, Calif.) and data were analyzed by ModFit LT software (Verity Software House, Inc., Topsham, Me.).
It was noteworthy that SC21 induced S phase arrest in PC3 and HEY cell lines (FIG. 17).

PC3 xenografts = experiment: PC3 human prostate cancer xenograft in athymic nude mice; type: in vivo
Description: FIG. 20. (A) is a schematic outline of tumor growth and dosing in PC3 mice xenografts. […] Athymic nude mice implanted with PC3 cells were treated with the indicated concentration of SC21 through daily i.p. administration for 5 d. Tumor growth was monitored for 5 wks. Values represent the tumor weight (mean±SD) for each group. (C) depicts dose-response to SC21 in the PC3 xenograft. Values represent the % T/C from each treatment group on the last day of measurement (after 5 wks); bars,±SD.
Fifty male athymic nude (nu/nu) mice (Charles River Laboratories, Wilmington, Mass.) were used for in vivo testing. The animals were fed ad libitum and kept in air conditioned rooms at 20±2° C. with a 12-hour light-dark period. Animal care and manipulation were in agreement with the University of Southern California Institutional Guidelines, which are in accordance with the Guidelines for the Care and Use of Laboratory Animals.
PC3 cells from in vitro cell culture were inoculated s.c. in both flanks of athymic nude mice (2×10^6 cells/flank) under aseptic conditions. Tumor growth was assessed by biweekly measurement of tumor diameters with a Vernier caliper (length×width). Tumor weight was calculated according to the formula: TW (mg)=tumor volume (mm^3)=d^2×D/2, where d and D are the shortest and longest diameters, respectively. Cells were allowed to grow to an average volume of 100 mm^3. Animals were then randomly assigned for control and treatment groups, to receive control vehicle or SC21 (0.3 and 3 mg/kg, dissolved in isotonic saline solution) via i.p. injections once a day for 5 days. Treatment of each animal was based on individual body weight. After 5 days of treatment, the tumor volumes in each group were measured […]. Treated animals were checked daily for treatment toxicity/mortality. The percentage of tumor growth inhibition was calculated as % T/C=100× (mean TW of treated group/mean TW of control group).
The in vivo efficacy of SC21 was evaluated in nude mice inoculated with human prostate PC3 cells. Animals were treated with daily i.p. injections of saline (controls) and SC21 at 0.3 or 3 mg/kg. After 5 days of dosing, the drug treatment was discontinued and the animals were monitored biweekly for 5 weeks.

DU145 cells = experiment: Cell cycle analysis (propidium iodide), SC21, DU145; type: cell-based, human; details: 72 hours of exposure, IC50
Description: as §1
as §2, with “Me.). […]” for “Me.).”

[1] = tested on: HCT 116 p53^+/+ colon cancer cells; experiment: MTT cytotoxicity assay, HCT 116 p53+/+; type: cell-based, human; details: Homo sapiens, 72 h
Source text: (§3) Human breast cancer cells MDA-MB-435 and colon cancer HT29, p53 mutant were purchased from the American Type Cell Culture (Manassas, Va.). The HCT116 P53^+/+ and HCT116 P53^−/− cells were kindly provided by Dr. Bert Vogelstein (Johns Hopkins Medical Institutions, Baltimore, Md.). Human prostate cancer cells, LNCaP, were kindly provided by Richard Cote (University of Southern California Keck School of Medicine). Cells were maintained as monolayer cultures in RPMI 1640 media supplemented with 10% fetal bovine serum (Gemini-Bioproducts, Woodland, Calif.) and 2 mmol/L L-glutamine at 37° C. in a humidified atmosphere of 5% CO2. To remove the adherent cells from the flask for passaging and counting, cells were washed with PBS without calcium or magnesium, incubated with a small volume of 0.25% trypsin-EDTA solution (Sigma-Aldrich, St. Louis, Mo.) for 5-10 min, and washed with culture medium and centrifuged. All experiments were performed using cells at exponential growth stage. Cells were routinely checked for mycoplasma contamination using a PCR-based assay (Stratagene, Cambridge, UK).
(§4) Cytotoxicity was assessed by a 3-(4,5-dimethylthiazol-2-yl)-2,5-diphenyltetrazolium bromide (MTT) assay as previously described.^9 Briefly, cells were seeded in 96-well microtiter plates and allowed to attach. Cells were subsequently treated with continuous exposure to the corresponding drug for 72 h. An MTT solution (at a final concentration of 0.5 mg/mL) was added to each well, and cells were incubated for 4 h at 37° C. After removal of the medium, DMSO was added and the absorbance was read at 570 nm. All assays were done in triplicate. The IC50 was then determined for each drug from a plot of log (drug concentration) versus percentage of cells killed.

UO-31 renal cancer cells = experiment: Sensitivity of various cancer cells to SC144, UO-31; type: cell-based; details: Homo sapiens
Source text: The studies were expanded to other cell lines. […] Subnanomolar to low nanomolar potency was also observed in HCT-116 and HT29 colon cancer cell lines (Table 2).

HT29 colon cancer cells = experiment: MTT cytotoxicity assay, HT 29; type: cell-based, human; details: Homo sapiens, 72 h
Source text: as §3, §4

[2] = 0.3 or 3 mg/kg daily i.p. for 5 days

Row | SMILES | accumulation in S phase (HEY cells) [%] | average weight of mice (PC3 xenografts; 0.3 mg/kg of SC21) [g] | average weight of mice (PC3 xenografts; 3.0 mg/kg of SC21) [g] | tolerability, drug-related deaths, body weight (PC3 xenografts; [2]) | tumor burden / tumor growth (PC3 xenografts; [2]) | cells retained in G0/G1 phase (DU145 cells) [%] | IC50 [1] [nM] | CC50 (UO-31 renal cancer cells) [nM] | IC50 (HT29 colon cancer cells) [nM]
1 | O=C(NNC(=O)c1ccccc1O)C1=CC2C=CC=CC2C=C1O (stereo not drawn) [SC21] | 69 | 32.1 ± 1.92 | 33.3 ± 1.89 | well-tolerated and did not result in any drug-related deaths and changes in body weight | significantly reduced tumor burden; also recorded: Significant reduction in tumor growth | 65 | – | – | –
2 | O=C(NNc1nc2cc(F)ccc2n2cccc12)c1cnccn1 [SC144, Pyrazine-2-carboxylic acid N′-(7-fluoro-pyrrolo[1,2-a]quinoxalin-4-yl)-hydrazide] | – | – | – | – | – | – | 600 ± 70 | 300 | 900 ± 60
